Laboratory results as given in patent publication US11802110B2, “2-amino-N-(arylsulfinyl)-acetamide compounds as inhibitors of bacterial aminoacyl-tRNA synthetase” (priority 2016, dated 2023).
Converted amounts (≈) assume the structure as drawn. Like-named read-outs stand apart in the source and are kept apart here.

Key:
[1] = Human cell viability (cytotoxicity), ATP levels by CellTiter-Glo; type: cell-based; details: HepG2 cells (ATCC HB-8065), 24 hours incubation, read-out: IC50 (μg/mL), Cytotoxicity in HepG2 ATCC HB-8065 Cell Line
Method: Compounds were assessed for potential non-specific cytotoxic effects against a human hepatic cell line (HepG2 ATCC HB-8065). 96-well plates were seeded with HepG2 cells in concentration of 15,000 cells per well in 100 μL of MEM growth media completed with 1% NEAA and 1% sodium pyruvate. Border wells were filled with 100 μL of sterile PBS. Two days upon cells incubation, the compounds were added. Compound dilutions were prepared in 96-well V-bottom plate in pure DMSO. Growth media from 5 plates were aspirated and replaced with 98.7 μL of fresh growth media. 1.28 μL of compounds prepared in V-bottom plates were transferred with multichannel pipette into test plates (78.1× dilution). Final DMSO concentration was 1.28% per well. In control wells, 1.28 μL of DMSO was added in 98.7 μL of media. Compounds were tested in duplicates. Cells were incubated with compounds for 24 hours when cell viability was assessed by measuring ATP levels. ATP levels were measured by adding 50 μL of CellTiter-Glo reagent to each well and after 5 minutes of incubation luminescence was measured with SpectraMax i3. The potential effect of tested compounds on cell viability was determined by comparing the signal obtained in presence of different concentrations of the compounds with those obtained in the presence of DMSO only. The potential effects were then calculated and presented as IC50 values (μg/mL).

E. Coli LeuRS = E. Coli LeuRS (Escherichia coli (strain K12), UniProt P07813); experiment: Study 2 - Isothermal titration calorimetry (ITC); type: binding; details: 25° C., pH 7.5, mean ± SD
Chain of E. Coli LeuRS (P07813 whole entry): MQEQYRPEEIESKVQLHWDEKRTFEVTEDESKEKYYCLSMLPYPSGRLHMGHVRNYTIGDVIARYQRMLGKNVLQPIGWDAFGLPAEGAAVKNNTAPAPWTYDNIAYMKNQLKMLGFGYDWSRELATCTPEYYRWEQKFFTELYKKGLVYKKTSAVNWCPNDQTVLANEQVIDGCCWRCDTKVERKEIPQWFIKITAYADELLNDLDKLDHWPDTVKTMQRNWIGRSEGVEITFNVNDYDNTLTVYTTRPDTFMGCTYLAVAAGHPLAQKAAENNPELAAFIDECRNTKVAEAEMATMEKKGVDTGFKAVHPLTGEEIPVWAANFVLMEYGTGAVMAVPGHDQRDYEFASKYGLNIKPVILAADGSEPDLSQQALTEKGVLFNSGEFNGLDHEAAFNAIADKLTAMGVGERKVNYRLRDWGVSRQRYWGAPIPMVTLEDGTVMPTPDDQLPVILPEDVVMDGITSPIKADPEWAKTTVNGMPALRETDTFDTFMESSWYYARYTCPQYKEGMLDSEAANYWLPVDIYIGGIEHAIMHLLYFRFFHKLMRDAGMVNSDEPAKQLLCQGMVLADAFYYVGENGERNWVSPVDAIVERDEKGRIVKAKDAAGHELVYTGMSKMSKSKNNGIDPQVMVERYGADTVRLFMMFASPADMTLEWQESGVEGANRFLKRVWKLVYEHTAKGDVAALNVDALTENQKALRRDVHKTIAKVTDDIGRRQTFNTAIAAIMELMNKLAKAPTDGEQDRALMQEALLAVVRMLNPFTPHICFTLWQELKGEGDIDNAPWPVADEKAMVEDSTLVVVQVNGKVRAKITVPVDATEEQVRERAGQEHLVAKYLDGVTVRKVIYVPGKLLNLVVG
Method: Escherichia coli BL21(DE3) cells transformed with plasmid pQE-60 containing the open-reading frame sequence of one targeted aaRS (i.e., LeuRS) were induced with 1 mM IPTG (isopropyl β-D-1-thiogalactopyranoside) for 3 hours at 37° C. Bacterial cells were harvested and lysed with 20 mM HEPES (4-(2-hydroxyethyl)-1-piperazinylethane-sulfonic acid) (pH 7.5), 300 mM NaCl, 15 mM imidazole and 1 mM DTT (1,4-dithio-D-threitol). The pathogenic aaRS was first purified by nickel affinity standard chromatography. The eluted protein was concentrated and then further purified by gel filtration using 50 mM HEPES (pH 7.5), 150 mM NaCl buffer.
ITC studies were carried out using a Microcal ITC200 instrument (GE Healthcare). Protein concentration was determined by spectrophotometry by measuring the absorbance at 280 nm using a theoretical molar extinction coefficient of 169,140 M^−1cm^−1. Ligand stock solutions were prepared in DMSO at 62.5 mM concentration. The titrations were performed at 25° C. with 7.5-100 μM E. Coli LeuRS in 50 mM HEPES, 150 mM NaCl, pH 7.5 buffer containing 1% DMSO (v/v). The protein solution in the 280 μL sample cell was titrated with the inhibitor solution (diluted to 75-3000 μM in the same buffer as the protein) using 1-2 μL injections every 120-140 seconds. All titrations were repeated at least two times. To correct for heats of dilution and mixing, the final baseline consisting of small peaks of identical size at the end of each experiment was subtracted. The experimental data were fitted to a theoretical titration curve (one site model) using MicroCal Origin 7 SR4 software.
Note that Compounds R-4.1 and S-4.1 (in Table 15, below) correspond to Compounds V-i and V-ii (in Tables 13 and 14, above), respectively.

[2] = system: Acinetobacter baumannii B1931 clinical isolate; experiment: Study 4 - MIC by broth micro-dilution (CLSI); type: cell-based
Method: (§1) Minimum Inhibitory Concentrations (MICs) were determined by the broth micro-dilution method performed according to Clinical Laboratory Standards Institute guidelines. For testing, 5 mg/mL DMSO solutions were prepared by dissolving solids in DMSO. Standard antibiotics were prepared according to CLSI guidelines as 5 mg/mL stock solutions. Upon DMSO stock solutions preparation, the working solutions in MH media were prepared by adding 38.4 μL of stock solution to 1461.6 μL of MH media. Out of these working solutions 100 μL were transferred to wells in the third column of 96-well assay plates. Assay plates were previously filled with 50 μL of MH media in all wells except for the wells in the third column. Upon compounds and antibiotics addition, 50 μL was transferred from the third to the fourth column, then from the fourth to the fifth and so on.
(§2) MIC value was determined by visual inspection of bacterial growth within 96-well plates. The first column in which there was no visible growth of bacteria was determined as MIC value for compound or antibiotic tested in that particular row. ATCC strains were used as reference strains for which there is a determined value of MIC values for standard antibiotics. The assay is considered valid when MIC values for standard antibiotics are within CLSI designated range for ATCC strain tested.

[3] = system: Enterobacter cloacae B1966 clinical isolate; experiment: Study 4 - MIC by broth micro-dilution (CLSI); type: cell-based
Method: as §1, §2

[4] = system: Escherichia coli ATCC 25922; experiment: Study 4 - MIC by broth micro-dilution (CLSI); type: cell-based
Method: as §1, §2

[5] = system: Haemophilus influenzae ATCC 49247; experiment: Study 4 - MIC by broth micro-dilution (CLSI); type: cell-based; details: G = H. influenzae ATCC 49247
Method: as §1, §2

[6] = system: Klebsiella pneumoniae ATCC 700603; experiment: Study 4 - MIC by broth micro-dilution (CLSI); type: cell-based
Method: as §1, §2

[7] = system: Pseudomonas aeruginosa ATCC 27853; experiment: Study 4 - MIC by broth micro-dilution (CLSI); type: cell-based
Method: as §1, §2

[8] = system: Escherichia coli ATCC 25922 TolC deficient mutant (E. coli EFFLUX del); experiment: microbe, parasite or virus in culture; type: cell-based
Method: as §1, §2

[9] = Haemophilus influenzae, ATCC49247, read-out: MIC
[10] = Klebsiella pneumoniae, ATCC700603
[11] = Pseudomonas aeruginosa, ATCC27853

| Structure (SMILES) | IC50 at 24 h [1] [µg/mL] | Kd (E. Coli LeuRS) [nM] | ΔG (E. Coli LeuRS) [kcal/mol] | ΔH (E. Coli LeuRS) [kcal/mol] | MIC ([2]; Acinetobacter baumannii) [µg/mL] | MIC ([3]; Enterobacter cloacae) [µg/mL] | MIC ([4]; Escherichia coli, ATCC25922) [µg/mL] | MIC [5, 9] [µg/mL] | MIC [6, 10] [µg/mL] | MIC [7, 11] [µg/mL] | further results |
| --- | --- | --- | --- | --- | --- | --- | --- | --- | --- | --- | --- |
| CCC(N)C(=O)N[S+]([O-])c1cccc(F)c1 (centres unmarked) [4.10] | > 64 |  |  |  |  |  |  |  |  |  |  |
| Cc1cccc([S+]([O-])NC(=O)C(N)CC(C)C)c1 (centres unmarked) [4.13] | > 64 | 6.62 ± 1.36 | -11.16 ± 0.12 | -8.69 ± 1.09 | 32 (≈ 119 µM) | 32 (≈ 119 µM) | 8 (≈ 29.8 µM) | 16 (≈ 59.6 µM) | 16 (≈ 59.6 µM) | > 64 |  |
| CC(C)CC(N)C(=O)N[S+]([O-])c1ccc2ccccc2c1 (centres unmarked) [4.40] | > 64 |  |  |  |  |  |  |  |  |  |  |
| CC(C)CC(N)C(=O)N[S+]([O-])c1cccc(Cl)c1 (centres unmarked) [4.12] | > 64 |  |  |  | 16 (≈ 55.4 µM) | 8 (≈ 27.7 µM) | 2 (≈ 6.93 µM) | 4 (≈ 13.9 µM) | 4 (≈ 13.9 µM) | 16 (≈ 55.4 µM) |  |
| CCCC(N)C(=O)N[S+]([O-])c1ccccc1 (centres unmarked) [4.4] | > 64 | 159 ± 29.4 | -9.28 ± 0.11 | -9.06 ± 0.28 |  |  |  |  |  |  |  |
| CC(C)CC(N)C(=O)N[S+]([O-])c1cccc(F)c1 (centres unmarked) [4.11] | > 64 | 2.17 ± 0.08 | -11.82 ± 0.04 | -16.22 ± 0.60 | 8 (≈ 29.4 µM) | 4 (≈ 14.7 µM) | 1 (≈ 3.67 µM) | 4 (≈ 14.7 µM) | 2 (≈ 7.34 µM) | 64 (≈ 235 µM) |  |
| COc1cccc([S+]([O-])NC(=O)C(N)CC(C)C)c1 (centres unmarked) [4.14] | > 64 | 4.02 ± 0.38 | -11.45 ± 0.06 | -12.35 ± 0.04 | 32 (≈ 113 µM) | 32 (≈ 113 µM) | 8 (≈ 28.1 µM) | 8 (≈ 28.1 µM) | 16 (≈ 56.3 µM) | 64 (≈ 225 µM) |  |
| CC(C)CC(N)C(=O)N[S+]([O-])c1cccc(C#N)c1 (centres unmarked) [4.19] | > 64 | 3.35 ± 0.48 | -11.56 ± 0.09 | -8.49 ± 0.38 | 64 (≈ 229 µM) | 8 (≈ 28.6 µM) | 2 (≈ 7.16 µM) | 8 (≈ 28.6 µM) | 4 (≈ 14.3 µM) | > 64 |  |
| CC(C)CC(N)C(=O)N[S+]([O-])c1cccc(Br)c1 (centres unmarked) [4.15] | > 64 | 10.6 ± 0.39 | -10.88 ± 0.03 | -10.74 ± 0.16 | 64 (≈ 192 µM) | 32 (≈ 96 µM) | 8 (≈ 24 µM) | 8 (≈ 24 µM) | 16 (≈ 48 µM) | 64 (≈ 192 µM) |  |
| CC(C)C(N)C(=O)N[S+]([O-])c1ccccc1 (centres unmarked) [4.5] | > 32 |  |  |  |  |  |  |  |  |  |  |
| C[C@@H](O)[C@H]1C(=O)N2C(C(=O)O)=C(S[C@@H]3CN[C@H](C(=O)N(C)C)C3)[C@H](C)[C@H]12 [Meropenem] |  |  |  |  |  |  |  |  |  |  | MIC ([2]; F = A. baumannii B1931): 8 µg/mL (≈ 20.9 µM); MIC ([3]; C = Enterobacter cloacae B1966): 0.5 µg/mL (≈ 1.3 µM); MIC ([4]; A = E. coli ATCC 25922): 0.5 µg/mL (≈ 1.3 µM); MIC [5]: 4 µg/mL (≈ 10.4 µM); MIC ([6]; D = KI. pneumoniae ATCC 700603): 0.5 µg/mL (≈ 1.3 µM); MIC ([7]; E = P. aeruginosa ATCC 27853): >64 µg/mL; MIC ([8]; B = E. coli EFFLUX del): 0.5 µg/mL (≈ 1.3 µM) |
| CC(C)C[C@@H](N)C(=O)N[S+]([O-])c1ccccc1 (some centres unmarked) [4.6] | > 32 |  |  |  |  |  |  |  |  |  |  |
| CC[C@H]1OC(=O)[C@H](C)[C@@H](O[C@H]2C[C@@](C)(OC)[C@@H](O)[C@H](C)O2)[C@H](C)[C@@H](O[C@@H]2O[C@H](C)C[C@H](N(C)C)[C@H]2O)[C@](C)(O)C[C@@H](C)CN(C)[C@H](C)[C@@H](O)[C@]1(C)O [Azithromycin] |  |  |  |  |  |  |  | 2 (≈ 2.67 µM) |  |  | MIC ([2]; Acinetobacter baumannii, F = A. baumannii B1931, read-out: MIC): 16 µg/mL (≈ 21.4 µM); MIC ([3]; C = Enterobacter cloacae B1966, read-out: MIC): 16 µg/mL (≈ 21.4 µM); MIC ([4]; Escherichia coli, ATCC25922, A = E. coli ATCC 25922, read-out: MIC): 4 µg/mL (≈ 5.34 µM); MIC ([6]; Klebsiella pneumoniae, ATCC700603, D = KI. pneumoniae ATCC 700603, read-out: MIC): 32 µg/mL (≈ 42.7 µM); MIC ([7]; Pseudomonas aeruginosa, ATCC27853, E = P. aeruginosa ATCC 27853, read-out: MIC): 32 µg/mL (≈ 42.7 µM); MIC ([8]; Escherichia coli, ATCC25922): 0.5 µg/mL (≈ 0.668 µM) |
| CC(C)CC(N)C(=O)N[S+]([O-])c1ccc(C(C)(C)C)cc1 (centres unmarked) [4.28] | > 64 |  |  |  |  |  |  |  |  |  |  |
